Data published in patent publication US9211310B2, “Use of a Chinese medicine composition in preparing medicaments for treating secondary prevention of myocardial infarction” (TASLY PHARMACEUTICAL GROUP CO., LTD, priority 2010, dated 2015).

Tested on: patients after acute myocardial infarction
Test: Life quality, Seattle Angina Questionnaire (SAQ), same clinical trial
Format: in vivo, human
Settings: PP
Source text: 3508 patients who were in accordance with the diagnostic standards of AMI for 28 days to 2 years and differentiated as Qi deficiency and blood stagnation syndrome by TCM were studied. 0.5 g Chinese medicine composition prepared by the method of EXAMPLE 1 (Coded as QSYQ) was administrated half an hour after meal, 3 times per day.
There were 19 questions in the Seattle angina questionnaire (SAQ), including 5 parts: physical limitation (PL), anginal stability (AS), anginal frequency (AF), treatment satisfaction (TS) and disease perception (DP). After being given necessary explanation by doctors, the questions were answered independently by patients.
They included the overall survival time, angina pectoris score, TCM symptom score and life quality score, where angina pectoris score, TCM symptom score and life quality score were evaluated at randomization, in 1st, 3rd, 6th, 9th, 12th month after treatment and 18th month after follow-up.
All evaluation results of SAQ were described during the period of observation, and Wilcoxon rank sum test was used for inter-group comparison.
The evaluation results in the SAQ were depicted in different observations, and inter-group comparison was tested by Wilcoxon Rank-sum test.

What does the source list for `CC(=O)Oc1ccccc1C(=O)O` [Control group, aspirine]?
SAQ 6th question, Highly consent: % of patients (1 month after treatment): (17.86%); SAQ 6th question, Highly consent: number of patients (1 month after treatment): 266; SAQ 6th question, Mostly dissatisfied: % of patients (1 month after treatment): (4.37%); SAQ 6th question, Mostly dissatisfied: number of patients (1 month after treatment): 65; SAQ 6th question, Mostly satisfied: % of patients (1 month after treatment): (47.88%); SAQ 6th question, Mostly satisfied: number of patients (1 month after treatment): 713; SAQ 6th question, Partly satisfied: % of patients (1 month after treatment): (29.68%); SAQ 6th question, Partly satisfied: number of patients (1 month after treatment): 442; SAQ 7th question, Dissatisfied: % of patients (1 month after treatment): (0.13%); SAQ 7th question, Dissatisfied: number of patients (1 month after treatment): 2; SAQ 7th question, Highly satisfied: % of patients (1 month after treatment): (23.40%); SAQ 7th question, Highly satisfied: number of patients (1 month after treatment): 348; SAQ 7th question, Mostly dissatisfied: % of patients (1 month after treatment): (3.36%); SAQ 7th question, Mostly dissatisfied: number of patients (1 month after treatment): 50; SAQ 7th question, Mostly satisfied: % of patients (1 month after treatment): (48.69%); SAQ 7th question, Mostly satisfied: number of patients (1 month after treatment): 724; SAQ 7th question, Partly satisfied: % of patients (1 month after treatment): (24.41%); SAQ 7th question, Partly satisfied: number of patients (1 month after treatment): 363; SAQ Question 1-1 Mildly limited, number of patients (1 month after treatment): 21; SAQ Question 1-1 Mildly limited, percent of patients (1 month after treatment): (1.41%); SAQ Question 1-1 Moderately limited, number of patients (1 month after treatment): 9; SAQ Question 1-1 Moderately limited, percent of patients (1 month after treatment): (0.60%); SAQ Question 1-1 Not limited, number of patients (1 month after treatment): 1375; SAQ Question 1-1 Not limited, percent of patients (1 month after treatment): (92.41%); SAQ Question 1-1 Other reasons, number of patients (1 month after treatment): 2; SAQ Question 1-1 Other reasons, percent of patients (1 month after treatment): (0.13%); SAQ Question 1-1 Severely limited, number of patients (1 month after treatment): 1; SAQ Question 1-1 Severely limited, percent of patients (1 month after treatment): (0.07%); SAQ Question 1-1 Slightly limited, number of patients (1 month after treatment): 80; SAQ Question 1-1 Slightly limited, percent of patients (1 month after treatment): (5.38%); SAQ Question 1-2 Mildly limited, number of patients (1 month after treatment): 30; SAQ Question 1-2 Mildly limited, percent of patients (1 month after treatment): (2.02%); SAQ Question 1-2 Moderately limited, number of patients (1 month after treatment): 10; SAQ Question 1-2 Moderately limited, percent of patients (1 month after treatment): (0.67%); SAQ Question 1-2 Not limited, number of patients (1 month after treatment): 1345; SAQ Question 1-2 Not limited, percent of patients (1 month after treatment): (90.39%); SAQ Question 1-2 Other reasons, number of patients (1 month after treatment): 4; SAQ Question 1-2 Other reasons, percent of patients (1 month after treatment): (0.27%); SAQ Question 1-2 Severely limited, number of patients (1 month after treatment): 0; SAQ Question 1-2 Severely limited, percent of patients (1 month after treatment): (0.00%); SAQ Question 1-2 Slightly limited, number of patients (1 month after treatment): 99; SAQ Question 1-2 Slightly limited, percent of patients (1 month after treatment): (6.65%); SAQ Question 1-6: Mildly limited, patients (%) (1 month after treatment): (18.24%); SAQ Question 1-6: Moderately limited, patients (%) (1 month after treatment): (15.53%); SAQ Question 1-6: Not limited, patients (%) (1 month after treatment): (29.08%); SAQ Question 1-6: Other reasons, patients (%) (1 month after treatment): (0.88%); SAQ Question 1-6: Severely limited, patients (%) (1 month after treatment): (4.75%); SAQ Question 1-6: Slightly limited, patients (%) (1 month after treatment): (31.53%); SAQ Question 1-7: Mildly limited, patients (%) (1 month after treatment): (23.85%); SAQ Question 1-7: Moderately limited, patients (%) (1 month after treatment): (17.55%); SAQ Question 1-7: Not limited, patients (%) (1 month after treatment): (12.34%); SAQ Question 1-7: Other reasons, patients (%) (1 month after treatment): (3.08%); SAQ Question 1-7: Severely limited, patients (%) (1 month after treatment): (17.75%); SAQ Question 1-7: Slightly limited, patients (%) (1 month after treatment): (25.43%); SAQ Question 1-8: Mildly limited, patients (%) (1 month after treatment): (24.83%); SAQ Question 1-8: Moderately limited, patients (%) (1 month after treatment): (20.79%); SAQ Question 1-8: Not limited, patients (%) (1 month after treatment): (8.28%); SAQ Question 1-8: Other reasons, patients (%) (1 month after treatment): (2.87%); SAQ Question 1-8: Severely limited, patients (%) (1 month after treatment): (22.37%); SAQ Question 1-8: Slightly limited, patients (%) (1 month after treatment): (20.86%); 8th question: Dissatisfied, patients (%) (3 months after treatment): (0.07%); 8th question: Highly satisfied, patients (%) (3 months after treatment): (19.43%); 8th question: Mostly dissatisfied, patients (%) (3 months after treatment): (2.85%); 8th question: Mostly satisfied, patients (%) (3 months after treatment): (52.31%); 8th question: Partly satisfied, patients (%) (3 months after treatment): (25.34%); 9th question: Few, patients (%) (3 months after treatment): (31.56%); 9th question: Mild, patients (%) (3 months after treatment): (32.99%); 9th question: Moderate, patients (%) (3 months after treatment): (15.51%); 9th question: Severe, patients (%) (3 months after treatment): (0.95%); 9th question: Uneffective, patients (%) (3 months after treatment): (18.98%); 10th question: Dissatisfied, patients (%) (3 months after treatment): (20.88%); 10th question: Highly satisfied, patients (%) (3 months after treatment): (4.90%); 10th question: Mostly dissatisfied, patients (%) (3 months after treatment): (22.38%); 10th question: Mostly satisfied, patients (%) (3 months after treatment): (23.47%); 10th question: Partly satisfied, patients (%) (3 months after treatment): (28.37%); 11th question: Continuously worried, patients (%) (3 months after treatment): (4.62%); 11th question: No worried, patients (%) (3 months after treatment): (4.76%); 11th question: Occasionally worried, patients (%) (3 months after treatment): (41.47%)
